# Data from publication PMC6135396, “Repurposing antimalarial aminoquinolines and related compounds for treatment of retinal neovascularization” (PLoS ONE, 2018).
# Like-named read-outs stand apart in the source and are kept apart here.
# Experiments:
# [1] = Cytotoxicity, ATP-Lite, Fa2N-4 immortalized human hepatocytes; assay type: cell-based; details: Fa2N-4 immortalized human hepatocytes
# Protocol: Fa2N-4 immortalized human hepatocytes (Xenotech) or HREC cells were grown to subconfluency in wells of a 96-well plate and exposed to different concentrations of compounds for 24 h after which the cells were washed and the media and compounds replaced. The cells were returned to the incubator for another 24 h. The extent of cell death (cell lysis) was determined by ATP-Lite reagent (Perkin-Elmer).
# [2] = LogD (pH 7.4); assay type: physicochemical
# [3] = PAMPA permeability; assay type: in vitro ADME
# [4] = Plasma-protein binding, human; assay type: in vitro ADME
# [5] = Plasma-protein binding, mouse; assay type: in vitro ADME
# [6] = Plasma stability, human; assay type: in vitro ADME
# [7] = Plasma stability, rat; assay type: in vitro ADME
# [8] = Hepatic microsome stability, mouse; assay type: in vitro ADME; details: liver microsomes, pH 7.4, single phase, read-out: Hepatic microsome stability T1/2
# Protocol: Hepatic microsomes stability assays were performed as reported before. […] After preincubation at 37°C for 10 min, enzyme reactions were initiated by adding 120 μL of NADPH-generating system (2 mM NADP^+, 10 mM glucose-6-phosphate, 0.4 U/ml glucose-6-phosphate dehydrogenase, and 5 mM MgCl2) in the presence of 100 mM potassium phosphate buffer (pH 7.4). The final concentration of each model compound used was 1 μM. The microsomal concentrations used were 1.0 mg/mL. Compounds were incubated in microsomes for 0, 5, 15, 30 and 60 min. The reactions were stopped by the addition of ice cold ACN and the reaction mixtures were centrifuged at 10,000g for 10 min before the supernatant was removed for analysis.
# Except for the primary assay in the HTS campaign, all experiments were repeated at least three times. Results are expressed as mean ± SEM. The Mann-Whitney test was used to determine statistical significance of the densitometry data of Western blot analysis. Unpaired two-tailed Student’s t-test was performed for the significance of the results of ELISA and in vitro tubule formation assay. ANOVA was used to determine the significance in vivo CNV models using the Tukey post-hoc test for multiple comparisons. […] T1/2 was calculated using the best fit curve resulting from non-linear (human) or linear (mouse and rat) regression analyses using Prism 7.
# [9] = Tissue distribution in the mouse eye after intravitreal injection; assay type: in vivo; details: 7 d after IVT administration
# Protocol: Mice were assigned to groups (n = 6/group) that received either 50 μg compound, or vehicle via intravitreal injection (1 μl volume). One day after injection, ½ of the mice (n = 3 / group) mice were euthanized. The eyes were enucleated and the vitreous humor, retina, and RPE/Choroid/sclera were isolated and snap frozen in liquid N2. The remaining mice in each treatment group (n = 3 / group) were euthanized and the same tissues collected. The quantity of compound in the tissues (n = 6 eyes / treatment group) was measured using LC-MS/MS.
# [10] = target: T1, APJ (Homo sapiens, UniProt P35414); assay: APJ β-arrestin recruitment assay (PathHunter, CHO-K1-APJ); assay type: cell-based; set-up: β-galactosidase enzyme fragment (enzyme fragment complementation construct); host or cells: CHO-K1 (CHO-K1-APJ, PathHunter)
# T1 sequence (P35414 1-380): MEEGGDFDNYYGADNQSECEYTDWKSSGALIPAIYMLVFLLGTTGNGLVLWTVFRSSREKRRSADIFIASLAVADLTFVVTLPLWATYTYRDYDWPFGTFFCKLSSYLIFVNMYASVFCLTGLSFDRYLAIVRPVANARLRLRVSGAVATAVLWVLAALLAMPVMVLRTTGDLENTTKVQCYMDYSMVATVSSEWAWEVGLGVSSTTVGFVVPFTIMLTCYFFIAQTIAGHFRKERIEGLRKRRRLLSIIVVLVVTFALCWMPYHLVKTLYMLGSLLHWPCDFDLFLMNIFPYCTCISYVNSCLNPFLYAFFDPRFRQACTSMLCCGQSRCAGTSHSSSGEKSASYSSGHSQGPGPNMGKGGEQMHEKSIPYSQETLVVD
# Protocol: PathHunter™ GPCR Arrestin and cAMP Hunter™ cell lines (DiscoveRx Corp., Fremont, CA) were used to assay G-protein-dependent signaling and β-arrestin recruitment to APJ. CHO-K1 cells stably expressing APJ (CHO-K1-APJ) or AT1 (CHO-K1-AT1) with β-arrestin/β-galactosidase enzyme fragment complementation constructs were maintained in HAM's F-12 medium (Hyclone, Logan, UT) supplemented with 10% FBS, 1X Penicillin-Streptomycin-Glutamine (Invitrogen; Carlsbad, CA), 300 μg/ml hygromycin (EMD Biosciences, San Diego, CA), and 800 μg/ml Geneticin (Cellgro, Manassas, VA). Primary Human Retinal Microvascular Endothelial Cells (HRECs) were purchased from Cell Systems (Kirkland, WA) and maintained in Complete Classic Medium with CultureBoost-R™ (Cell Systems). Parent CHO-K1 cells were obtained from ATCC and maintained in HAM’s F-12 medium supplemented with 10% FBS, and1X Penicillin-Streptomycin-Glutamine (Invitrogen; Carlsbad, CA). All cells were incubated at 37°C (5% CO2, 95% relative humidity) and maintained at less than 70% to 80% confluence (approximately 75,000 cells/cm^2). Cell heterologously expressing APJ or AT1 were not used after 10 passages. HRECs were not used in any experiments after five passages.
# CHO-K1 cells engineered to over-express APJ or AT1, and β-arrestin were removed from flasks using TrypLE Select (1X), no phenol red (Life Technologies, Grand Island, NY), centrifuged, and resuspended in CP2 Reagent (DiscoveRx, Fremont, CA). Cells were counted using a Countess Automated Cell Counter (Invitrogen, Carlsbad, CA) and 5,000 cells/well were plated in a 384-well tissue culture treated microplate (Corning, Corning, NY). All plates were incubated overnight at 37°C, 5% CO2 in a final volume of 25 μl/well. Following incubation, 5 μl of peptides (10-point concentrations) and controls prepared in ligand buffer (1X HBSS, 10 mM HEPES, 0.1% BSA) were added to cells and incubated at 37°C for 1.5 h. Using a Multidrop Combi Reagent Dispenser (Thermo Scientific), 12 μl of Detection Reagent (DiscoveRx) comprised of substrate and co-factors was added to all wells and incubated at room temperature in the dark for 1 h. Chemiluminescent signal was detected on an EnVision Multi-label plate reader (Perkin Elmer) using a counting time of 1 s/well. The robustness of data from each screening plate and run was monitored by Z’ and Signal Window calculation.
smiles,measurement,setting,value
"CCN(CC)Cc1cc(Nc2ccnc3cc(Cl)ccc23)ccc1O [AQ, amodiaquine]",IC50 at 48 h,"[1]; ATP-lite assay, Fa2-N4 cells",> 50 µM
same,CC50 at 48 h,"[1]; Fa2N-4 cells, read-out: Cytotoxicity LC50",> 50 µM
same,logD,[2],2.37
same,Papp,"[3]; Donor pH 5.0, Acceptor pH 7.4, read-out: PAMPA permeability Pe",3 ×10⁻⁶ cm/s
same,Papp,"[3]; Donor pH 6.2, Acceptor pH 7.4, read-out: PAMPA permeability Pe",9.6 ×10⁻⁶ cm/s
same,Papp,"[3]; pH 7.4, Donor pH 7.4, Acceptor pH 7.4, read-out: PAMPA permeability Pe",54 ×10⁻⁶ cm/s
same,Plasma-protein binding,[4]; 1 μM,88.2 % bound
same,Plasma-protein binding,[4]; 10 μM,83.8 % bound
same,Plasma-protein binding,[5]; 1 μM,81.9 % bound
same,Plasma-protein binding,[5]; 10 μM,70.8 % bound
same,Plasma stability,[6],37.3 % remaining at 3 hrs
same,Plasma stability,[7],46.3 % remaining at 3 hrs
same,half-life at 1 μM,[8],39.8 min
same,AQ level in plasma,[9],No detectable levels
same,Antagonism of Ap13-mediated recruitment of β-arrestin,[10],"neither AQ nor 1, 3, 4, 5, or 6 antagonized"
same,IC50,"[10]; secondary assay, Ap13-mediated β-arrestin recruitment",> 99 µM
